Like-named read-outs stand apart in the source and are kept apart here.
Biological target: T1, human leukocyte elastase (Homo sapiens, UniProt P08246)
T1 sequence (P08246 30-267): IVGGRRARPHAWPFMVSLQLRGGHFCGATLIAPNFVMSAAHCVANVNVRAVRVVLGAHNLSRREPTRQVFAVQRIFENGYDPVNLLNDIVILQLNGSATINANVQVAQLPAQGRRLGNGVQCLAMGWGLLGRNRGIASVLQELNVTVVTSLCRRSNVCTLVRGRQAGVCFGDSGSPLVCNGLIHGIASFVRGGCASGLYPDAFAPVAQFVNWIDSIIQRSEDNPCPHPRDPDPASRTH
Assay: in vitro human leukocyte elastase inhibiting activity (fluorogenic substrate, method of JP-A-2-101017 with slight modification)
Format: biochemical
Description: Thus, methoxysuccinyl-Ala-Ala-Pro-Val-7-amido-4-methylcoumarin was used as a substrate for human leukocyte elastase and the 50% inhibitory concentration (IC₅₀) was measured. The enzymatic reaction was carried out in 0.2 M Tris-hydrochloride buffer (containing 0.02 M CaCl₂ and 0.005% Triton X-100) at pH 7.2. Each mixture of test compound solution and the enzyme solution was incubated at 25°C for 20 minutes.

[1] = 50% inhibitory concentration, substrate methoxysuccinyl-Ala-Ala-Pro-Val-7-amido-4-methylcoumarin, 0.2 M Tris-hydrochloride buffer (0.02 M CaCl2, 0.005% Triton X-100), pH 7.2, compound and enzyme incubated at 25°C for 20 minutes, read-out: IC50

| IC50 [1] [nM] | Structure (SMILES) | IC50 [nM] |
| --- | --- | --- |
| 3.6 | COC(=O)c1ccc([N+](=O)[O-])c(OC(=O)c2ccc(NC(=O)C(C)C)cc2)c1 [Compound 55, 3-methoxycarbonyl-6-nitrophenyl 4-(isobutanoylamino)benzoate] | – |
| 26 | COC(=O)Nc1ccc(C(=O)Oc2cc(Cl)cc(Cl)c2)cc1 [Compound 33, 3,5-dichlorophenyl 4-(methoxycarbonylamino)benzoate] | – |
| 310 | CC(C)C(=O)Nc1ccc(C(=O)Oc2cccc(F)c2)cc1 [Compound 71, 3-fluorophenyl 4-(isobutanoylamino)benzoate] | – |
| – | CN(C)C(=O)Oc1cc(Cl)cc(OC(=O)c2ccc(NC(=O)C(C)(C)C)cc2)c1 [Compound 58, 3-chloro-5-(dimethylaminocarbonyloxy)phenyl 4-(pivaloylamino)benzoate] | 3.5 |
| 260 | O=C(Oc1cc(Cl)cc(Cl)c1)c1ccc(NS(=O)(=O)c2ccccc2)cc1 [Compound 25, 3,5-dichlorophenyl 4-(benzenesulfonylamino)benzoate] | – |
| 4.1 | CC(C)C(=O)Nc1ccc(C(=O)Oc2cc(Cl)cc(Cl)c2)cc1 [Compound 7, 3,5-dichlorophenyl 4-(isobutanoylamino)benzoate] | – |
| 67 | O=C(Oc1cc(Cl)cc(Cl)c1)c1ccc(NC(=O)C(F)(F)F)cc1 [Compound 11, 3,5-dichlorophenyl 4-(trifluoroacetylamino)benzoate] | – |
| 140 | O=C(Oc1cc(Cl)cc(Cl)c1)c1ccc(N2C(=O)CCC2=O)cc1 [Compound 23, 3,5-dichlorophenyl 4-(succinimidyl)benzoate] | – |
| 9 | CC=CC(=O)Nc1ccc(C(=O)Oc2cc(Cl)cc(Cl)c2)cc1 [Compound 13, 3,5-dichlorophenyl 4-(2-butenoylamino)benzoate] | – |
| 8.4 | COc1ccc(COC(=O)c2ccc([N+](=O)[O-])c(OC(=O)c3ccc(NC(=O)C(C)C)cc3)c2)cc1 [Compound 56] | – |
| 2.1 | CC(C)C(=O)Nc1ccc(C(=O)Oc2cc(C(=O)O)ccc2[N+](=O)[O-])cc1 [Compound 54, 3-hydroxycarbonyl-6-nitrophenyl 4-(isobutanoylamino)benzoate] | – |
| 3.4 | CC(C)(C(=O)O)C(=O)Nc1ccc(C(=O)Oc2cc(Cl)cc(Cl)c2)cc1 [Compound 40, 3,5-dichlorophenyl 4-(2,2-dimethylmalonylamino)benzoate] | – |
| 47 | CNC(=O)Nc1ccc(C(=O)Oc2cc(Cl)cc(Cl)c2)cc1 [Compound 26, 3,5-dichlorophenyl 4-(3-methylureido)benzoate] | – |
| 3.4 | CC(C)C(=O)Nc1ccc(C(=O)Oc2cc(C=O)ccc2[N+](=O)[O-])cc1 [Compound 53, 3-formyl-6-nitrophenyl 4-(isobutanoylamino)benzoate] | – |
| 96 | CC(C)CC(=O)Nc1ccc(C(=O)Oc2cc(Cl)cc(Cl)c2)cc1 [Compound 19, 3,5-dichlorophenyl 4-(3-methylbutanoylamino)benzoate] | – |
| 10 | O=C(Oc1cc(Cl)cc(Cl)c1)c1ccc(NC(=O)C(F)(F)C(F)(F)F)cc1 [Compound 12, 3,5-dichlorophenyl 4-(pentafluoropropanoylamino)benzoate] | – |
| 37 | CC1(C(=O)Nc2ccc(C(=O)Oc3cc(Cl)cc(Cl)c3)cc2)CC1 [Compound 1, 3,5-dichlorophenyl 4-(1-methylcyclopropanecarbonylamino)benzoate] | – |
| 570 | N=C(N)Nc1ccc(C(=O)Oc2cc(Cl)cc(Cl)c2)cc1 [Compound 95, reference compound] | – |
| 47 | CC(C)(CC(=O)Nc1ccc(C(=O)Oc2cc(Cl)cc(Cl)c2)cc1)C(=O)O [Compound 41, 3,5-dichlorophenyl 4-(3,3-dimethylsuccinylamino)benzoate] | – |
| 9.6 | CC(C)C(=O)Nc1ccc(C(=O)Oc2cc(Cl)cc(OC(=O)C3(C)CC3)c2)cc1 [Compound 78, 3-chloro-5-(1-methylcyclopropanecarbonyloxy)phenyl 4-(isobutanoylamino)benzoate] | – |
| 13 | CC(C)NC(=O)Nc1ccc(C(=O)Oc2cc(Cl)cc(Cl)c2)cc1 [Compound 31, 3,5-dichlorophenyl 4-(3-isopropylureido)benzoate] | – |
